For 20 compounds, Ki results are on record in BindingDB's records for doi:10.1021/bi00118a023 (University of Akron, 1992).

The term Ki denotes the equilibrium dissociation constant of an inhibitor or competing ligand from its target. Low readings indicate higher affinity, high ones lower affinity.

This experiment has as its target T1, Bifunctional aspartokinase/homoserine dehydrogenase 1 (Escherichia coli (strain K12), UniProt P00561).
T1 sequence (P00561 whole entry): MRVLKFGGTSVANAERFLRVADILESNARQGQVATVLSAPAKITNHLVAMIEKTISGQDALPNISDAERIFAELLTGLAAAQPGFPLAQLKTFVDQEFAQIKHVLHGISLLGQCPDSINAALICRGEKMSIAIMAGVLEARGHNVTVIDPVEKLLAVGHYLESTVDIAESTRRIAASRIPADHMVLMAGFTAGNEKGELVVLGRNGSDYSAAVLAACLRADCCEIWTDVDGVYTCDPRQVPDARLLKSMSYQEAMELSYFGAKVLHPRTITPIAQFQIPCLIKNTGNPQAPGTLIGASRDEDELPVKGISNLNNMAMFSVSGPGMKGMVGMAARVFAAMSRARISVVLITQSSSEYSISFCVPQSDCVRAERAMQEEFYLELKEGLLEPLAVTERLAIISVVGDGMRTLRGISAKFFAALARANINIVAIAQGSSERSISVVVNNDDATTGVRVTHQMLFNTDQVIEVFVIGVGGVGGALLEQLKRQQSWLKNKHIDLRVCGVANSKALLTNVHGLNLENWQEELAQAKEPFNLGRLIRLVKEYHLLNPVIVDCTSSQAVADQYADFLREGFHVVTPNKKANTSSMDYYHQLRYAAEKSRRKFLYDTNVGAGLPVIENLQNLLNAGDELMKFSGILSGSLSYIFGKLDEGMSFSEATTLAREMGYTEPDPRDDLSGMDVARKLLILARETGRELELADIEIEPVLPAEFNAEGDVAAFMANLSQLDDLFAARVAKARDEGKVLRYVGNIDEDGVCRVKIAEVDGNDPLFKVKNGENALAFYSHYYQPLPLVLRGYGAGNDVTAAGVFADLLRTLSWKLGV
The experiment is described as follows: Inhibition Assay. The text has this:
Analogues of L-aspartic acid and beta-aspartyl phosphate were examined as inhibitors in the aspartokinase I reaction by using the coupled reaction with ASA-DH.
In turn, `NCC(O)C(=O)O` (racemic) [DL-Isoserine] came in with a Ki of 30 mM. As to `NCC[C@H](N)C(=O)O` [2,4-Diaminobutanoate], the affinity corresponds to a Ki of 10 mM. Compound `CCC(N)C(=O)O` (stereo not given) [2-Aminobutyrate] gave a Ki of 5 mM. With `NC(CC(=O)O)CC(=O)O` [3-Aminoglutarate] the figure was 45 mM; with `NC(C(=O)O)C(=O)O` [Aminomalonate], 23 mM. For `NC(=O)C[C@@H](N)C(=O)O` [D-asparagine], the Ki amounted to 39 mM. In turn, `N[C@@H](CC(=O)O)C(=O)OCc1ccccc1` [D-aspartate alpha-benzyl ester] had a Ki of 11 mM.

Take `N[C@@H](CC(=O)NO)C(=O)O` [D-aspartate-beta-hydroxamate]: the Ki stood at 16 mM. `NC(CCCP(=O)(O)O)C(=O)O` (stereo not drawn) [DL-2-Amino-5-phosphonovalerate] gave a Ki of 8.4 mM. As to `NC(CCP(=O)(O)O)C(=O)O` (stereo not drawn) [DL-2-amino-4-phosphonobutyrate], the affinity corresponds to a Ki of 61 mM. The compound `N[C@@H](CCOP(=O)(O)O)C(=O)O` [Homoserine phosphate] gave a Ki of 6 mM.

Take `N[C@@H](CN(O)N=O)C(=O)O` [L-Alanosine]: affinity was put at a Ki of 7.5 mM. `COC(=O)C[C@H](N)C(=O)OC` [L-Aspartic dimethyl ester] returned a Ki of 71 mM. As to `N[C@@H](CCC(=O)O)C(=O)O` [L-Glutamic acid], the Ki is 38 mM. As to `CCC[C@H](N)C(=O)O` [L-Norvaline], the Ki was 3.1 mM. Take `CC(C)[C@H](N)C(=O)O` [L-Valine]: the Ki was 32 mM. Regarding `C[C@H](N)C(=O)O` [L-alanine], the affinity corresponds to a Ki of 99 mM.

In turn, `COC(=O)CC[C@H](N)C(=O)O` [L-glutamate gamma-methyl ester] gave a Ki of 24 mM. With `CCCC[C@H](N)C(=O)O` [L-norleucine] the figure was 24 mM.

Turning to `N[C@@H](COP(=O)(O)O)C(=O)O` [O-phospho-L-serine], affinity was put at a Ki of 12 mM.
